We go through 36 compounds from US10807968B2, “Substituted 2-(het)arylimidazolylcarboxyamides as pesticides” (Bayer CropScience Aktiengesellschaft, priority 2016, dated 2020).

Data set [1] has as its system Myzus persicae. Description: Myzus persicae - spray test (Chinese cabbage leaf discs). Particulars: after 6 days; for pest or weed control at 500 g/ha: Myzus persicae, foliar, 144 h, read-out: efficacy in % (aphids killed). It counts as in vivo. The protocol: Myzus persicae—Spray Test
Solvent: 78 parts by weight of acetone • • 1.5 parts by weight of dimethylformamide
Emulsifier: alkylaryl polyglycol ether
To produce a suitable preparation of active compound, 1 part by weight of active compound is dissolved using the specified parts by weight of solvent and made up with water containing an emulsi fier concentration of 1000 ppm until the desired concentration is attained. To produce further test concentrations, the formulation is diluted with emulsifier-containing water.
Discs of Chinese cabbage leaves (Brassica pekinensis) infested by all stages of the green peach aphid (Myzus persicae) are sprayed with an active compound formulation of the desired concentration.
After 6 days, the efficacy in % is determined. 100% means that all the aphids have been killed; 0% means that no aphids have been killed.

Data set [2] is described as follows: log P determination by HPLC on reversed-phase (C18) columns, OECD Guideline 117. Particulars: for chromatographic logP: reversed-phase (C18) HPLC column. It counts as physicochemical. The protocol:
The log P values were determined in accordance with OECD Guideline 117 (EC Directive 92/69/EEC) by HPLC (high-performance liquid chromatography) using reversed-phase (RP) columns (C18), by the following methods:
[a] The LC-MS determination in the acidic range was carried out at pH 2.7 with 0.1% aqueous formic acid and acetonitrile (contains 0.1% formic acid) as mobile phases; linear gradient from 10% acetonitrile to 95% acetonitrile.
[b] LC-MS determination in the neutral range was carried out at pH 7.8 with 0.001 molar aqueous ammonium hydrogencarbonate solution and acetonitrile as mobile phases; linear gradient from 10% acetonitrile to 95% acetonitrile.

Data set [3] concerns Myzus persicae. Description: Myzus persicae - oral test. The format is in vivo. Particulars: after 5 days; for pest or weed control at 20 ppm: Myzus persicae, 120 h, read-out: efficacy in % (aphids killed); for efficacy in % (aphids killed): 20 ppm. The protocol: Solvent: 100 parts by weight of acetone
Subsequently, the plates are sealed with parafilm, which a mixed population of green peach aphids (Myzus persicae) within a second microtitre plate is able to puncture and imbibe the solution through it.
After 5 days, the efficacy in % is determined. 100% means that all the aphids have been killed; 0% means that no aphids have been killed.

Where [4] appears, read: pH 2.7, HPLC, acidic range pH 2.7, 0.1% aqueous formic acid/acetonitrile, read-out: logp-acidic.
The mark [5] stands for this setting: pH 7.8, HPLC, neutral range pH 7.8, 0.001 molar aqueous ammonium hydrogencarbonate/acetonitrile, read-out: logp-neutral.
The mark [6] stands for this setting: HPLC, acidic range pH 2.7, 0.1% aqueous formic acid/acetonitrile.
The mark [7] stands for this setting: HPLC, neutral range pH 7.8, 0.001 molar aqueous ammonium hydrogencarbonate/acetonitrile.

Where two headings read alike, the source gives them in different places.

With `Cc1cc(F)c(-c2ncc(C(=O)N(C)c3cccnc3)n2C)cc1SCC(F)(F)F` [Example 2], in data set [1] (500 g/ha), the pest or weed control at 500 g/ha amounted to 90%. The chromatographic logP was 2.23 in data set [2] (setting [4]) and 2.48 in data set [2] (setting [5]). The pest or weed control at 20 ppm in data set [3] was determined as 100%.

With `CSc1cccc(-c2ncc(C(=O)N(C)c3cccnc3)n2C)c1` [Example 3], the “efficacy in % (aphids killed)” value is 90% in data set [1] (500 g/ha) and 100% in data set [3]. In data set [2] (pH 2.7), this compound came in with a logp-acidic of 1.24. The logp-neutral in data set [2] (pH 7.8) came out at 1.75.

As to `CN(C(=O)c1cnc(-c2cccc([S+]([O-])CC(F)(F)F)c2)n1C)c1cccnc1` (stereo not shown) [Example 5], the “efficacy in % (aphids killed)” value in data set [1] (500 g/ha) is on record as 90%; in data set [3], 100%. Also, the logp-acidic in data set [2] (pH 2.7) was 1.07. Further, the logp-neutral in data set [2] (pH 7.8) came to 1.43.

`CN(C(=O)c1cnc(-c2cccnc2)n1C)c1cccnc1` [Example 7]: the pest or weed control at 500 g/ha in data set [1] (500 g/ha) came to 90%. The chromatographic logP in data set [2] (setting [4]) was 0.18. Moreover, the pest or weed control at 20 ppm in data set [3] amounted to 100%.

Turning to `Cc1cc(C)cc(-c2ncc(C(=O)N(C)c3cccnc3)n2C)c1` [Example 8], the “efficacy in % (aphids killed)” value in data set [1] (100 g/ha) is reported as 90%; in data set [3], 100%. In data set [2] (setting [6]), this compound gave a logp-acidic of 1.16.

Turning to `CN(C(=O)c1cnc(-c2ccccc2Cl)n1C)c1cccnc1` [Example 9], the “efficacy in % (aphids killed)” value in data set [1] (500 g/ha) and in data set [3] was 100% each time. Also, the logp-acidic in data set [2] (setting [6]) is given as 1.10.

On to `CN(C(=O)c1cnc(-c2cccc(Cl)c2)n1C)c1cccnc1` [Example 10], for which the “efficacy in % (aphids killed)” value in data set [1] (500 g/ha) amounted to 90%; in data set [3], 100%. Further, the logp-acidic in data set [2] (setting [6]) is given as 1.29.

For `CN(C(=O)c1cnc(-c2ccc(Cl)c(Cl)c2)n1C)c1cccnc1` [Example 13], the “efficacy in % (aphids killed)” value in data set [1] (500 g/ha) was 90%; in data set [3] it was 100%. For the same compound, the logp-acidic in data set [2] (setting [6]) worked out at 1.79.

In the case of `CN(C(=O)c1cnc(-c2cccn2C)n1C)c1cccnc1` [Example 14], the pest or weed control at 500 g/ha in data set [1] (500 g/ha) is 90%. The chromatographic logP in data set [2] (setting [4]) was found to be 0.62. Moreover, the pest or weed control at 20 ppm in data set [3] was 100%.

On to `CN(C(=O)c1cnc(-c2ccoc2)n1C)c1cccnc1` [Example 15], for which the results for the “efficacy in % (aphids killed)” value in data set [1] (500 g/ha) and in data set [3] were 90% and 100%, respectively. Further, the logp-acidic in data set [2] (setting [6]) came out at 0.29.

On to `CN(C(=O)c1cnc(-c2cccc(SC(F)(F)F)c2)n1C)c1cccnc1` [Example 17], for which the “efficacy in % (aphids killed)” value was 90% in data set [1] (500 g/ha) and 100% in data set [3]. For the same compound, the logp-acidic in data set [2] (pH 2.7) worked out at 2.00. This compound returned a logp-neutral in data set [2] (pH 7.8) of 2.28.

`CN(C(=O)c1cnc(-c2cccc(SCC3CC3)c2)n1C)c1cccnc1` [Example 18]: the results for the “efficacy in % (aphids killed)” value in data set [1] (500 g/ha) and in data set [3] were 90% and 100%, respectively. Besides, the logp-acidic in data set [2] (pH 2.7) came out at 1.87. This compound showed a logp-neutral in data set [2] (pH 7.8) of 2.36.

Take `COCc1cccc(-c2ncc(C(=O)N(C)c3cccnc3)n2C)c1` [Example 19]: the “efficacy in % (aphids killed)” value in data set [1] (500 g/ha) and in data set [3] was 90% each time. The logp-acidic in data set [2] (setting [6]) is 0.86. Moreover, the logp-neutral in data set [2] (setting [7]) was found to be 1.43.

For `CN(C(=O)c1cnc(-c2cccc(COC3CCOCC3)c2)n1C)c1cccnc1` [Example 20], in data set [1] (500 g/ha), the pest or weed control at 500 g/ha amounted to 90%. The chromatographic logP in data set [2] (setting [4]) is 1.11; in data set [2] (setting [5]), 1.57.

For the compound `CN(C(=O)c1cnc(-c2cccc(S(C)(=O)=O)c2)n1C)c1cccnc1` [Example 22], the “efficacy in % (aphids killed)” value in data set [1] (500 g/ha) and in data set [3] was 100% throughout. Further, the logp-acidic in data set [2] (pH 2.7) is given as 0.75. In addition, the logp-neutral in data set [2] (pH 7.8) is 1.08.

As to `CSc1cc(-c2ncc(C(=O)N(C)c3cccnc3)n2C)ccc1C` [Example 23], the “efficacy in % (aphids killed)” value in data set [1] (500 g/ha) and in data set [3] was 100% throughout. This compound also gave a logp-acidic in data set [2] (pH 2.7) of 1.43. In data set [2] (pH 7.8), this compound yielded a logp-neutral of 2.03.

Take `CN(C(=O)c1cnc(-c2cnn(-c3ccccc3C#N)c2)n1C)c1cccnc1` [Example 24]: the “efficacy in % (aphids killed)” value amounted to 90% in data set [1] (500 g/ha) and 100% in data set [3]. The logp-acidic in data set [2] (pH 2.7) stood at 1.07. Also, in data set [2] (pH 7.8), the logp-neutral worked out at 1.49.

Regarding `CN(C(=O)c1cnc(-c2cnn(-c3ccc(F)cc3)c2)n1C)c1cccnc1` [Example 25], the “efficacy in % (aphids killed)” value in data set [1] (500 g/ha) was 90%; in data set [3], 100%. In addition, in data set [2] (pH 2.7), the logp-acidic was determined as 1.21. The logp-neutral in data set [2] (pH 7.8) is on record as 1.68.

As to `CN(C(=O)c1cnc(-c2cnn(-c3ccccc3)c2)n1C)c1cccnc1` [Example 26], the “efficacy in % (aphids killed)” value in data set [1] (500 g/ha) is 90%; in data set [3] it was 100%. In addition, in data set [2] (pH 2.7), the logp-acidic is reported as 1.19. In data set [2] (pH 7.8), this compound gave a logp-neutral of 1.70.

As to `CN(C(=O)c1cnc(-c2cccc3ccccc23)n1C)c1cccnc1` [Example 27], the “efficacy in % (aphids killed)” value in data set [1] (500 g/ha) turned out to be 90%; in data set [3], 100%. Further, the logp-acidic in data set [2] (pH 2.7) is 1.35. Further, the logp-neutral in data set [2] (pH 7.8) came out at 1.89.

Consider `COC(=O)c1cccc2c(-c3ncc(C(=O)N(C)c4cccnc4)n3C)cccc12` [Example 28], for which the “efficacy in % (aphids killed)” value was found to be 90% in data set [1] (500 g/ha) and 100% in data set [3]. For the same compound, in data set [2] (pH 2.7), the logp-acidic stood at 1.56. In data set [2] (pH 7.8), this compound had a logp-neutral of 1.95.

`COC(=O)c1cc(F)ccc1-c1ncc(C(=O)N(C)c2cccnc2)n1C` [Example 29]: the “efficacy in % (aphids killed)” value was found to be 90% in data set [1] (500 g/ha) and 100% in data set [3]. The logp-acidic in data set [2] (pH 2.7) is 1.04. Besides, the logp-neutral in data set [2] (pH 7.8) stood at 1.55.

For `CN(C(=O)c1cnc(-c2ccc(F)c3ccccc23)n1C)c1cccnc1` [Example 30], the figures for the “efficacy in % (aphids killed)” value in data set [1] (500 g/ha) and in data set [3] were 90% and 100%, respectively. Moreover, in data set [2] (pH 2.7), the logp-acidic came out at 1.57. The compound further showed a logp-neutral in data set [2] (pH 7.8) of 2.05.

With `CN(C(=O)c1cnc(-c2ccncc2)n1C)c1cccnc1` [Example 33], the pest or weed control at 500 g/ha in data set [1] (500 g/ha) was 100%. In addition, the pest or weed control at 20 ppm in data set [3] is 100%.

Turning to `CCOC(=O)COc1cccc(-c2ncc(C(=O)N(C)c3cccnc3)n2C)c1` [Example 41], the logp-acidic in data set [2] (pH 2.7) amounted to 1.18. Moreover, the logp-neutral in data set [2] (pH 7.8) was found to be 1.70.

In the case of `CCOC(=O)COc1cc(-c2ncc(C(=O)N(C)c3cccnc3)n2C)cc(F)c1F` [Example 42], the logp-acidic in data set [2] (pH 2.7) came out at 1.80. Moreover, the logp-neutral in data set [2] (pH 7.8) is 2.02.

The compound `CCOC(=O)COc1cc(-c2ncc(C(=O)N(C)c3cccnc3)n2C)ccc1F` [Example 43] gave a logp-acidic in data set [2] (pH 2.7) of 1.44.

Take `COc1ccc(OC)c(-c2ncc(C(=O)N(C)c3cccnc3)n2C)c1` [Example 85]: the logp-acidic in data set [2] (pH 2.7) is 0.9. The “efficacy in % (aphids killed)” value in data set [3] amounted to 100%.

In turn, `COc1ccc(-c2ncc(C(=O)N(C)c3cccnc3)n2C)cc1[N+](=O)[O-]` [Example 96] yielded a logp-acidic in data set [2] (setting [6]) of 1.2. In data set [2] (setting [7]), the logp-neutral came to 1.53.

Consider `CSc1ccccc1-c1ncc(C(=O)N(C)c2cccnc2)n1C` [Example 98], for which the logp-acidic in data set [2] (pH 2.7) is 1.14. Further, the logp-neutral in data set [2] (pH 7.8) is reported as 1.59. Moreover, the “efficacy in % (aphids killed)” value in data set [3] came out at 100%.

Take `CCN(C(=O)c1cncn1C)c1cccnc1` [VII-ethyl]: in data set [2] (setting [5]), the chromatographic logP amounted to 0.78.

In the case of `C#Cc1ncc(C(=O)N(C)c2cccnc2)n1C` [XIV, 2-ethynyl-N,1-dimethyl-N-(pyridin-3-yl)-1H-imidazole-5-carboxamide], the chromatographic logP in data set [2] (setting [4]) was 0.53; in data set [2] (setting [5]) it was 0.87.

`Cc1cc(F)c(-c2ncc(C(=O)O)n2C)cc1SCC(F)(F)F` [XIX]: the values for the chromatographic logP in data set [2] (setting [4]) and in data set [2] (setting [5]) were 1.83 and 0.95, respectively.

On to `CN(C(=O)c1cnc(Br)n1C)c1cccnc1` [XI], for which the values for the chromatographic logP in data set [2] (setting [4]) and in data set [2] (setting [5]) were 0.65 and 0.93, respectively.

As for `Cc1cc(F)c(B2OC(C)(C)C(C)(C)O2)cc1SCC(F)(F)F` [XVI, 2-{2-fluoro-4-methyl-5-[(2,2,2-trifluoroethyl)sulphanyl]phenyl}-4,4,5,5-tetramethyl-1,3,2-dioxaborolane], the chromatographic logP in data set [2] (setting [4]) was 4.89; in data set [2] (setting [5]), 4.8.

For `COC(=O)c1cnc(-c2cc(SCC(F)(F)F)c(C)cc2F)n1C` [XVIII, methyl 2-{2-fluoro-4-methyl-5-[(2,2,2-trifluoroethyl)sulphanyl]phenyl}-1-methyl-1H-imidazole-5-carboxylate], the results for the chromatographic logP in data set [2] (setting [4]) and in data set [2] (setting [5]) were 3.09 and 3.19, respectively.
